Assay: Stability of lorazepam with ODT excipients and coatings

O=C1Nc2ccc(Cl)cc2C(c2ccccc2Cl)=NC1O (centres unmarked) [lorazepam, 7-chloro-5-(2-chlorophenyl)-1,3-dihydro-3-hydroxy-2H-1,4-benzodiazepin-2-one]
stability when coated (lorazepam coated with EUDRAGIT® E-100): unstable
stability with ODT excipients (with mannitol and super disintegrants such as crosslinked PVP): unstable
